Target: T1, POsterior Segregation (Caenorhabditis elegans, UniProt G5EF15)
T1 sequence (G5EF15 whole entry): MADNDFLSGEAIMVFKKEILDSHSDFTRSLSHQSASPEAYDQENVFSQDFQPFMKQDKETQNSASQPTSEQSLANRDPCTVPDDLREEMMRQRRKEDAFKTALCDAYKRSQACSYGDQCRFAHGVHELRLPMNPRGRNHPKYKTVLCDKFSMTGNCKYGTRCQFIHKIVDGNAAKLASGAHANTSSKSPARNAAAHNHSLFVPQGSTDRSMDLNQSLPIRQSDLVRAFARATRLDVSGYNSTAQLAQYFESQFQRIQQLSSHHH
Assay: inhibitors of POS-1/mex-3 RNA binding, dose response, biochemical, fluorescence polarization (AID 1964)

Structure (SMILES)	EC50
COc1ccc(CCN2C(=O)NC(=O)C(=CNc3ccc(NC(C)=O)cc3)C2=O)cc1OC [MLS000332913]	> 300 µM
O=C1CCCC2=Nc3cc(Cl)ccc3SC12 (stereo unspecified) [MLS000333002]	18.4 µM
CCCCCCN1C(=O)C(=CNc2ccccc2N2CCOCC2)C(=O)NC1=S [MLS000333666]	> 300 µM
Cc1ccc(CN=Nc2ncnc3nc[nH]c23)cc1 [MLS000419179]	> 300 µM
CCOc1ccc(N=C(C(=C(Cl)C(Cl)Cl)[N+](=O)[O-])n2cncn2)cc1 [MLS000519210]	46.9 µM
COc1cc(CN=Nc2ccc([N+](=O)[O-])cc2)ccc1OCC(=O)Nc1ccc(C)c(C)c1 [MLS000537060]	> 300 µM
[H]/N=C1/OC23CCCCC2C(C#N)(C#N)C1(C#N)C(c1ccc(OC)cc1)O3 (stereo unspecified) [MLS000554241]	12.4 µM
Nc1c(-c2nc3ccccc3[nH]2)c(O)cn1-c1ccc(CC(=O)O)cc1 [MLS000565528]	5.25 µM
Cc1nnc(=O)[nH]c1N=NCC1C=CC(=O)C([N+](=O)[O-])=C1 (stereo unspecified) [MLS000585487]	169 µM
O=C(N[N-][CH+]c1cc([N+](=O)[O-])ccc1N1CCCC1)c1ccccn1 [MLS000684285]	149 µM
Cc1cc(=O)n(-c2ccc(C(=O)O)c(N)c2)[nH]1 [MLS000690508]	85.5 µM
CC1=C(C#N)C(=O)N(C)C(=O)C1=CNNc1ccc(C)c(C)c1 [MLS000698328]	> 300 µM
CC1=C(C#N)C(=O)N(C)C(=O)C1=CNNc1ccc(F)cc1 [MLS000702698]	> 300 µM
O=C(c1ccccc1)[C@@H]1c2c(c(O)n(-c3ccc(F)cc3)c2O)C2CCCN21 (stereo partly specified) [MLS000769629]	37.9 µM
O=C(O)c1ccccc1N=NCc1c(Sc2nnnn2-c2ccccc2)nc2ccccn2c1=O [MLS000775267]	> 300 µM
CCCCOC(=O)c1ccc(NN=C2C(=O)NC(=O)C(C#N)=C2C)cc1 [MLS000778379]	> 300 µM

Structure (SMILES)	EC50
COc1cc(C2C3=C(CC(C)(C)CC3=O)OC(=N)C2C#N)ccc1OCCN1CCOCC1 (stereo unspecified) [MLS000779948]	> 300 µM
C=c1c(C(=O)OC)c(O)c(=Cc2ccco2)n1-c1ccccc1 [MLS000780287]	99 µM
COc1ccc(C(C)N=Nc2nc3ccccc3nc2C)cc1OC (stereo unspecified) [MLS001029936]	5.07 µM
CC1(C)c2[nH]c3ccccc3c2Cc2c(O)n(-c3ccc(F)cc3F)c(=O)n21 [MLS001065879]	> 300 µM
O=C(/C=C/c1ccco1)NCC(=O)NNC1=c2ccccc2=NC1=O [MLS001075666]	13.1 µM
O=C1N=C(O)C(C2=c3cc([N+](=O)[O-])ccc3=NC2=O)S1 (stereo unspecified) [MLS001163276]	13.2 µM
N#CC1C(=N)OC2=C(C(=O)CCC2)C1c1cc2c(cc1Cl)OCO2 (stereo unspecified) [MLS001183950]	> 300 µM
Cc1cc(=O)[nH]c(N=NCc2ccc(O)c(O)c2)n1 [MLS001194906]	99.3 µM
COc1ccc(OC)c(N2C(=O)C(=Cc3ccco3)C(=O)NC2=S)c1 [MLS001197216]	10.4 µM
Cc1ccccc1NN=C1C(=O)N(C)c2ccccc21 [MLS001203477]	> 300 µM
O=[N+]([O-])c1cc/c(=N\c2ccccc2O)c2no[nH]c1-2 [MLS001206694]	24.4 µM
COc1cc2c(cc1C1C3=C(CC(C)(C)CC3=O)OC(=N)C1C#N)OCO2 (stereo unspecified) [MLS001208406]	> 300 µM
O=C1C([N+](=O)[O-])=CC(Cl)=CC1/C=N/NC(=O)C(O)(c1ccccc1)c1ccccc1 (stereo unspecified) [N''''-[(E)-(3-chloro-5-nitro-6-oxocyclohexa-2,4-dien-1-ylidene)methyl]-2-hydroxy-2,2-diphenylacetohydrazide]	> 300 µM
O=C(NN=Cc1c(O)n(-c2ccccc2)c(=S)[nH]c1=O)c1ccc(O)cc1 [N'-[(1Z)-(4,6-dioxo-1-phenyl-2-thioxohexahydropyrimidin-5-yl)methylene]-4-hydroxybenzohydrazide]	> 300 µM
O=C(N/N=C/C1C=C(Cl)C=C([N+](=O)[O-])C1=O)c1ccc2c(c1)OCO2 (stereo unspecified) [N'-[(E)-(3-chloranyl-5-nitro-6-oxidanylidene-cyclohexa-2,4-dien-1-ylidene)methyl]-1,3-benzodioxole-5-carbohydrazide]	127 µM
